In patent US10894777B2, “TG2 inhibitor piperazine compounds and uses thereof” (UNIVERSITY OF OTTAWA, priority 2016, dated 2021):

Key:
HaCaT cells = assay: Spheroid formation assay, HaCaT cells; assay type: cell-based, human; details: 20 μM, 48 h
Method: Spheroid formation assay. Spheroid formation assays were as reported previously (Adhikary, G. et al., PLoS One 8:e84324, 2013), except that the spheroids were grown in 6-well ultralow attachment Costar cluster dishes (Corning).

GBM cells (U87 and T98G) = assay: EdU incorporation assay; assay type: cell-based, human; details: 24 h
Method: EdU Incorporation Assay. After treatment of cells seeded in PolyD-Lys coated coverslips, half of the media was replaced with 10 μM EdU in 10% FBS MEM. After 90 min, cells were fixed with 4% PFA and permeabilized with 0.5% Triton X-100. Detection of EdU was performed as directed in the Click-iT EdU Alexa 647 kit (Life Technologies). 1:2000 Hoechst dilution was used to stain nuclei. Randomized pictures were taken for each group and a person blinded for the treatments counted the EdU and Hoechst positive cells.

purified human TG2 = biological target: T1, purified human TG2 (Homo sapiens, UniProt P21980); assay: Native PAGE of TG2 conformation; assay type: biochemical; details: NC9 120 μM, VA4 40 μM, VA5 40 μM with calcium, 90 min
T1 sequence (P21980 1-687): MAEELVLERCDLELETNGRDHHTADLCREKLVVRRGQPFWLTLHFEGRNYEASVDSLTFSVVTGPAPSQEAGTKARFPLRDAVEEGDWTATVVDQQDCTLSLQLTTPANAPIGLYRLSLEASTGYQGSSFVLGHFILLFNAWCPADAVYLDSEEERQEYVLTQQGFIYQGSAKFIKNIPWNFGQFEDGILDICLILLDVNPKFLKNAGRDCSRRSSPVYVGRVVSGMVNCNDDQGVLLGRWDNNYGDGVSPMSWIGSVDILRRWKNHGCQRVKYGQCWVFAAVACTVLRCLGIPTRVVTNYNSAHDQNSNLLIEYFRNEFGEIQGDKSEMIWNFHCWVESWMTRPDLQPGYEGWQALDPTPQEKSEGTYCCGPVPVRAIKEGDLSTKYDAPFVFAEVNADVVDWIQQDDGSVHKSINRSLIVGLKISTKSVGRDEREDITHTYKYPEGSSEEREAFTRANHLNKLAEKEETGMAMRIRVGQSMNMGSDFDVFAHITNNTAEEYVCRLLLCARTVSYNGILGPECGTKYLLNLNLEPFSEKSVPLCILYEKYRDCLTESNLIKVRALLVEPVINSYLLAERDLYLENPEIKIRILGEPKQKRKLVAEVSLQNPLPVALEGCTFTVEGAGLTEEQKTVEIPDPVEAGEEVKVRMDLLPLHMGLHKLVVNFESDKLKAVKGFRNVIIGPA
Method: Following this incubation, samples were run on polyacrylamide gel under non-denaturing conditions and in the presence of […] and magnesium. The gel was Coomassie stained and a picture of the gel is shown.
Native PAGE. Native gel electrophoresis experiments were performed using a method similar to those described previously (Begg, G. E. et al., Proc. Natl. Acad. Sci. U.S.A. 103: 19683-19688, 2006; Pinkas, D. M. et al., PLoS Biol. 5: e327, 2007). Briefly, TG2 or inhibited TG2 (2.5 μM) was incubated for 1.5 h at room temperature in pre-incubation buffer (50 mM Tris, 5 mM DTT, 0.5 mM EDTA) at pH 7.0 with or without 100 μM GTP/1.0 mM MgCl2 or 5.0 mM CaCl2. Laemmli native loading buffer was added (1:1) and 1.5 μg of TG2 was loaded onto a 4-20% Tris-HCl ReadyGel (Bio-Rad) using Tris-glycine as the running buffer with 100 μM GTP/1.0 mM MgCl2. For 90 min, 120 V was applied at 4° C. The gel was stained with 0.5% Coomassie brilliant blue R-250 in 40% methanol/10% acetic acid and destained in 10% methanol/10% acetic acid.

SCC-13 cells = assay: Matrigel invasion assay, SCC-13 cells; assay type: cell-based, human
Method: Invasion assay. Matrigel was diluted in 0.01 M Tris-HCl/0.7% NaCl, filter sterilized and 0.1 ml was used to coat individual BD BioCoat inserts (Millicell-PCF, 0.4 μm, 12 mm, PIHP01250). Cells (25,000) were plated in 100 μl in growth medium, supplemented with 1% FCS, in the upper chamber. The lower chamber contained growth medium supplemented with 10% FCS. After migration, the membranes were harvested and excess cells were removed from the upper membrane surface. The membrane was fixed in 4% paraformaldehyde, stained with 1 μg/m DAPI, and the underside of the membrane was photographed with an inverted fluorescent microscope and the number of cells counted.
Invasion assay. Matrigel (BD Biolabs) was diluted into 2 mL of 0.01 M Tris-HC/0.7% NaCl to a final concentration of 300 μg/mL, filter sterilized and 0.1 mL was added per BD BioCoat cell insert. After 2 hours, near-confluent SCC13-TG2-shRNA2 and SCC13-Control-shRNA cells were harvested and 25,000 cells were plated in 100 μL of growth media containing 1% FCS atop the Matrigel layer. Growth medium containing 10% FCS was added to the bottom chamber followed by an overnight incubation at 37° C. The following day a cotton swab was used to remove cells from the upper side of the membrane, the membrane was rinsed with phosphate-buffered saline, fixed with 4% paraformaldehyde for 10 min, washed again, and stained with 1 μg/mL DAPI for 10 min. The underside of the membrane was viewed with an inverted fluorescent microscope and nuclei were counted.
Invasion assay. Matrigel (BD Biolabs) was diluted into 2 ml of 0.01 M Tris-HC/0.7% NaCl to a final concentration of 300 μg/ml, filter sterilized, and 0.1 ml was added per BD BioCoat cell insert (8 microns pore size, surface area 0.3 cm2). After 2 h, near-confluent SCC-13 cells were harvested and 25,000 cells were plated in 100 μl of growth media containing 1% FCS atop the Matrigel layer. Growth medium containing 10% FCS was added to the bottom chamber followed by an overnight incubation at 37° C. The following day a cotton swab was used to remove cells from the upper side of the membrane, the membrane was rinsed with PBS, fixed with 4% paraformaldehyde, washed again, and stained with 1 μg/ml DAPI for 10 min. The underside of the membrane was viewed with an inverted fluorescent microscope, and nuclei were counted (Adhikary, G. et al., PLoS One 8:e84324, 2013).

Row | SMILES | ECS cell spheroid formation (HaCaT cells) | proliferation (EdU incorporation) (GBM cells (U87 and T98G)) | conformation of inhibitor-bound TG2 (purified human TG2) | matrigel invasion (SCC-13 cells; 20 μM pretreatment 1 hour, 24 hours) | invasion (SCC-13 cells; 20 μM pretreatment 2 h, 30 h) | matrigel invasion (SCC-13 cells; 20 μM, 24 h)
1 | C=CC(=O)NCCCC[C@H](NC(=O)OCc1ccccc1)C(=O)NCCOCCOCCNS(=O)(=O)c1cccc2c(N(C)C)cccc12 [NC9] | suppressed | slowed down the proliferation | open conformation | reduced matrigel invasion | reduced | inhibited
2 | C=CC(=O)NCCCC[C@H](NC(=O)OCc1ccccc1)C(=O)N1CCN(S(=O)(=O)c2cccc3c(N(C)C)cccc23)CC1 [VA4, (S)-benzyl(6-acrylamido-1-(4-((5-(dimethylamino)naphthalen-1-yl)sulfonyl)piperazin-1-yl)-1-oxohexan-2-yl)carbamate] | suppressed | slowed down the proliferation | open conformation | – | – | inhibited
3 | C=CC(=O)NCCCC[C@H](NC(=O)OCc1ccccc1)C(=O)N1CCN(C(=O)c2cc3ccc(O)cc3oc2=O)CC1 [VA5, (S)-Benzyl(6-acrylamido-1-(4-(7-hydroxy-2-oxo-2H-chromene-3-carbonyl)piperazin-1-yl)-1-oxohexan-2-yl)carbamate] | suppressed | no effect | open conformation | – | – | inhibited
